Eleven compounds from ChEMBL document CHEMBL1201862, “PubChem BioAssay data set” (2004) can be followed below.

Among the test systems are A549; CCRF-CEM; COLO 205; HL-60; HT-29; Hs-578T; M14; MDA-MB-435; Malme-3M; NCI-H23; OVCAR-3; OVCAR-4; OVCAR-5; SF-268; SK-MEL-5; SW-620; LOX IMVI; SF-539; T47D; HCC 2998.
Holding throughout (assay): growth of human tumour cells (NCI), 48 h

Each structure is given as a SMILES string.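 Following 48 hours of exposure in 96-well plates, responses at five concentrations were used to interpolate endpoints linearly. GI50: concentration for 50% inhibition of growth.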 The source made the active and inactive calls. Cut-off read from the data, not from the text of the source: active = GI50 up to about 1.1 µM and inactive = higher.

Turning to `CC1CC(NN)=Nc2ccccc2N1` (stereo unspecified), the GI50 in the assay with A549 was > 100 µM (inactive); in the assay on CCRF-CEM, 40.3 µM (inactive); in the assay on COLO 205, > 100 µM (inactive); with HL-60 it was 60.3 µM (inactive); in the assay with HT-29, > 100 µM (inactive); with Hs-578T, > 100 µM (inactive). Also, the GI50 was > 100 µM (inactive) in the assay on M14; > 100 µM (inactive) with MDA-MB-435; 16.6 µM (inactive) in the assay on Malme-3M; > 100 µM (inactive) in the assay on NCI-H23; > 100 µM (inactive) with OVCAR-3; > 100 µM (inactive) with OVCAR-4. Besides, the GI50 with OVCAR-5, in the assay on SF-268, with SK-MEL-5 and in the assay on SW-620 was > 100 µM (inactive) in each case.
Take `CC(C)(C)C(=O)c1c(O)c2ccccc2c2ccccc2c1=O`: the GI50 in the assay on A549 was > 100 µM (inactive); with CCRF-CEM it was > 100 µM (inactive); in the assay with COLO 205 it was > 100 µM (inactive); with HL-60 it was > 100 µM (inactive); in the assay on HT-29, 49.7 µM (inactive); in the assay with Hs-578T, 85.7 µM (inactive). Besides, the GI50 is 47.8 µM (inactive) in the assay on LOX IMVI; 95.3 µM (inactive) in the assay on M14; > 100 µM (inactive) in the assay on MDA-MB-435; 41 µM (inactive) in the assay on NCI-H23; 59.2 µM (inactive) in the assay with OVCAR-3; 62.1 µM (inactive) in the assay with OVCAR-4. Moreover, the GI50 in the assay with OVCAR-5 was > 100 µM (inactive); in the assay on SF-268, > 100 µM (inactive); in the assay with SF-539, > 100 µM (inactive); with SK-MEL-5, > 100 µM (inactive); in the assay with SW-620, > 100 µM (inactive); in the assay on T47D it was 52.1 µM (inactive).
Take `CC(=O)/C(=C\c1ccc(Cl)c(Cl)c1)C(=O)C(C)CN(C)C` (stereo unspecified): the GI50 in the assay with A549 is 14.5 µM (inactive); in the assay on CCRF-CEM it was < 0.01 µM (active); in the assay with COLO 205 it was 11.4 µM (inactive); in the assay on HCC 2998, 2.39 µM (inactive); in the assay on HL-60 it was 2 µM (inactive); in the assay with HT-29 it was 5.12 µM (inactive). In addition, the GI50 is 2.21 µM (inactive) with LOX IMVI; 9.75 µM (inactive) in the assay on M14; 3.24 µM (inactive) with MDA-MB-435; 8.15 µM (inactive) in the assay with Malme-3M; 13.4 µM (inactive) in the assay on NCI-H23; 4.1 µM (inactive) in the assay on OVCAR-3. Further, the GI50 is 10.8 µM (inactive) in the assay with OVCAR-5; 3.62 µM (inactive) with SF-268; 3.52 µM (inactive) in the assay with SF-539; 11.9 µM (inactive) in the assay with SK-MEL-5; 2.69 µM (inactive) in the assay with SW-620; 2.65 µM (inactive) in the assay with T47D.
As for `O=C1c2ccccc2C(=O)c2c1c1cc(O)ccc1n2Cc1ccc(Cl)cc1Cl`, the GI50 was 3.27 µM (inactive) in the assay on A549; 4.12 µM (inactive) in the assay with CCRF-CEM; 15.1 µM (inactive) with COLO 205; 46.7 µM (inactive) in the assay with HL-60; 16.6 µM (inactive) in the assay on HT-29; 14 µM (inactive) in the assay with Hs-578T. Besides, the GI50 is 2.9 µM (inactive) in the assay with LOX IMVI; 15.9 µM (inactive) with M14; 9.42 µM (inactive) in the assay on MDA-MB-435; 22.8 µM (inactive) in the assay on Malme-3M; 7.23 µM (inactive) in the assay on NCI-H23; 1.9 µM (inactive) with OVCAR-4. Moreover, the GI50 was 1.89 µM (inactive) in the assay with OVCAR-5; 12.9 µM (inactive) with SF-268; 3.97 µM (inactive) in the assay on SF-539; 17.2 µM (inactive) with SK-MEL-5; 8.17 µM (inactive) in the assay with SW-620.
For the compound `Clc1ccccc1C(Nc1ncccn1)Nc1ncccn1`, the GI50 in the assay on A549, in the assay with COLO 205, in the assay with HCC 2998, in the assay with HL-60, with HT-29 and in the assay on Hs-578T was > 100 µM (inactive) throughout. In addition, the GI50 in the assay on LOX IMVI was > 100 µM (inactive); in the assay with M14 it was > 100 µM (inactive); in the assay on MDA-MB-435, 76.6 µM (inactive); with NCI-H23, > 100 µM (inactive); in the assay with OVCAR-3 it was > 100 µM (inactive); in the assay on OVCAR-4 it was > 100 µM (inactive). Besides, the GI50 with OVCAR-5, in the assay on SF-268, in the assay with SF-539, in the assay on SK-MEL-5, in the assay with SW-620 and with T47D was > 100 µM (inactive) throughout.
For `C[C@]12CC[C@H]3[C@@H](CCC4=C(Br)C(=O)C=C[C@@]43O)[C@@H]1CCC2=O`, the GI50 in the assay on A549 is 59.7 µM (inactive); in the assay on CCRF-CEM, 0.957 µM (active); with COLO 205 it was 61 µM (inactive); in the assay on HL-60, 21.2 µM (inactive); with HT-29, 36 µM (inactive); in the assay on Hs-578T, 62.8 µM (inactive). Also, the GI50 is 32.3 µM (inactive) with LOX IMVI; 39.3 µM (inactive) in the assay on M14; 33.7 µM (inactive) in the assay with MDA-MB-435; 93.5 µM (inactive) in the assay on Malme-3M; 17.8 µM (inactive) in the assay on NCI-H23; 45.4 µM (inactive) in the assay on OVCAR-3. The GI50 with OVCAR-4 was 33.3 µM (inactive); in the assay with OVCAR-5, 61 µM (inactive); with SF-268, 45.7 µM (inactive); with SF-539, 53.7 µM (inactive); with SK-MEL-5 it was 28.2 µM (inactive); in the assay with SW-620, 26.8 µM (inactive).
For the compound `CCOC(=O)Nc1ccc(S(=O)(=O)OC)cc1.CCOC(=O)Nc1ccc(S(=O)(=O)OC)cc1.Nc1ncnc2c1ncn2C1OC(CO)C(O)C1O` (stereo unspecified), the GI50 is 34.3 µM (inactive) in the assay on A549; 20.6 µM (inactive) in the assay with CCRF-CEM; 49 µM (inactive) in the assay on COLO 205; > 100 µM (inactive) with HCC 2998; 21.8 µM (inactive) in the assay with HL-60; 26.3 µM (inactive) in the assay with HT-29. The GI50 is 17.8 µM (inactive) in the assay on LOX IMVI; > 100 µM (inactive) with M14; > 100 µM (inactive) with Malme-3M; > 100 µM (inactive) with NCI-H23; > 100 µM (inactive) in the assay on OVCAR-3; 35.3 µM (inactive) in the assay on OVCAR-4. For the same compound, the GI50 was > 100 µM (inactive) in the assay on OVCAR-5; > 100 µM (inactive) in the assay on SF-268; > 100 µM (inactive) in the assay on SF-539; > 100 µM (inactive) with SK-MEL-5; 18.2 µM (inactive) with SW-620.
As for `NC1=NS(=O)(=O)Nc2nc(-c3ccc([N+](=O)[O-])cc3)[nH]c21`, the GI50 in the assay on A549, with CCRF-CEM, in the assay on COLO 205, in the assay on HCC 2998, with HL-60 and in the assay on HT-29 was > 100 µM (inactive) each time. The GI50 with LOX IMVI, with M14, in the assay on Malme-3M, with NCI-H23, with OVCAR-3 and with OVCAR-4 was > 100 µM (inactive) throughout. In addition, the GI50 in the assay with OVCAR-5, with SF-268, in the assay with SF-539, with SK-MEL-5 and in the assay with SW-620 was > 100 µM (inactive) throughout.
For the compound `CCC1(CC)C(=O)OC(=O)C1(CC)CC`, the GI50 in the assay with A549, in the assay with CCRF-CEM, in the assay with COLO 205, in the assay on HCC 2998, in the assay with HL-60 and in the assay on HT-29 was > 100 µM (inactive) throughout. Also, the GI50 was 15.2 µM (inactive) with Hs-578T; > 100 µM (inactive) in the assay on LOX IMVI; > 100 µM (inactive) with M14; > 100 µM (inactive) in the assay with MDA-MB-435; > 100 µM (inactive) in the assay with NCI-H23; > 100 µM (inactive) with OVCAR-3. Also, the GI50 in the assay with OVCAR-4, in the assay with SF-268, in the assay with SF-539, in the assay with SK-MEL-5, in the assay with SW-620 and in the assay with T47D was > 100 µM (inactive) in each case.
For the compound `CN(C)CCCNC(=O)c1cc(NC(=O)c2cc(NS(=O)(=O)c3ccc4c(c3)C(=O)c3ccccc3C4=O)cn2C)cn1C`, the GI50 in the assay with A549 is > 100 µM (inactive); in the assay on CCRF-CEM, 31.7 µM (inactive); with COLO 205, 83.9 µM (inactive); in the assay on HCC 2998, > 100 µM (inactive); in the assay with HL-60, 97.9 µM (inactive); with HT-29 it was 65.3 µM (inactive). In addition, the GI50 in the assay with LOX IMVI is 55.3 µM (inactive); in the assay with M14 it was > 100 µM (inactive); in the assay on MDA-MB-435 it was 83.8 µM (inactive); in the assay with Malme-3M, 28.4 µM (inactive); in the assay on NCI-H23, > 100 µM (inactive); in the assay on OVCAR-3 it was 95.5 µM (inactive). Further, the GI50 in the assay on OVCAR-4 is > 100 µM (inactive); in the assay on OVCAR-5, > 100 µM (inactive); in the assay on SF-268, > 100 µM (inactive); in the assay on SF-539, > 100 µM (inactive); with SK-MEL-5 it was 29.2 µM (inactive); with SW-620 it was 94.8 µM (inactive). Further, in the assay with T47D, the GI50 was > 100 µM (inactive).
`CCC[C@H](O)[C@@H](CNc1cc(NC(C)=O)nc(NC(C)=O)n1)N(Cc1ccccc1)Cc1ccccc1`: the GI50 was 13.2 µM (inactive) with A549; > 10 µM (inactive) with CCRF-CEM; 26.3 µM (inactive) in the assay with COLO 205; 76.4 µM (inactive) in the assay on HCC 2998; 14 µM (inactive) in the assay with Hs-578T; 27.9 µM (inactive) with LOX IMVI. For the same compound, the GI50 with M14 was 26.5 µM (inactive); in the assay on MDA-MB-435, 54 µM (inactive); with Malme-3M, 26.1 µM (inactive); in the assay on NCI-H23, 17.1 µM (inactive); in the assay on OVCAR-3, 18.9 µM (inactive); in the assay on OVCAR-4, 15.7 µM (inactive). For the same compound, the GI50 with OVCAR-5 was 27.9 µM (inactive); in the assay with SK-MEL-5, 20.9 µM (inactive); in the assay with SW-620 it was > 100 µM (inactive).
